Data reported in ChEMBL document CHEMBL5705884, “Breaching the DNA damage checkpoint via PF-00477736, a novel small-molecule inhibitor of checkpoint kinase 1” (Mol Cancer Ther, 2008).
Calls of active or inactive are those of the source. No cut-off for these calls is given here.

Tests used:
[1] = biological target: Proto-oncogene tyrosine-protein kinase receptor Ret (Homo sapiens, UniProt P07949); assay: Inhibition of Ret (unknown origin)
[2] = AUC (0 to infinity) in nu/nu mouse at 20 mg/kg, ip by LCMS analysis; assay type: ADME, organism-based; details: in vivo
[3] = Volume of distribution at steady state in Sprague-Dawley rat at 4 mg/kg, iv administered as bolus dose by LCMS analysis; assay type: ADME, organism-based; details: in vivo, read-out: Vdss
CA46 = assay: Inhibition of camptothecin induced DNA damage in mutated human CA46 cells assessed as increase in mitotic index by measuring histone H3 phosphorylation at S10 residue at 0.001 to 1 uM measured after 16 hrs presence of nocodazole by dot blot assay; assay type: functional, cell-based; details: CA46, 16 h
HT-29 [4] = assay: Inhibition of gemcitabine induced cell cycle arrest in human HT-29 cells assessed as increase in G2-M cell population pretreated with gemcitabine followed by compound treatment and measured after 10 to 48 hrs by flow cytometry analysis; assay type: functional, cell-based; details: time 10-48 hrs
HT-29 [5] = assay: Inhibition of gemcitabine induced cell cycle arrest in human HT-29 cells assessed as increase in G0-G1 cell population pretreated with gemcitabine followed by compound treatment and measured after 10 to 48 hrs by flow cytometry analysis; assay type: functional, cell-based; details: time 10-48 hrs
HT-29 [6] = assay: Potentiation of gemcitabine induced cytotoxicity in human HT-29 cells assessed as cell survival at 360 nM measured after 4 to 48 hrs by coulter counter method relative to gemcitabine alone; assay type: functional; details: time 4-48 hrs, read-out: Activity
HT-29 [7] = assay: Potentiation of gemcitabine induced cytotoxicity in human HT-29 cells assessed as cell survival at 540 nM measured after 4 to 48 hrs by coulter counter method relative to gemcitabine alone; assay type: functional; details: time 4-48 hrs, read-out: Activity
HT-29 [8] = assay: Potentiation of camptothecin induced cytotoxicity in human HT-29 cells assessed as cell survival at 540 nM measured after 4 to 48 hrs by coulter counter method relative to camptothecin alone; assay type: functional; details: time 4-48 hrs, read-out: Activity
PC-3 = assay: Antiproliferative activity against human PC-3 cells deficit of p53 expression assessed as inhibition of cell growth measured after 96 hrs by MTT assay; assay type: functional, cell-based; details: PC-3, 96 h
HT-29 [9] = assay: Potentiation factor, ratio of IC50 for human HT-29 cells to IC50 for human HT-29 cells in presence of SN-38; assay type: functional
MDA-MB-231 [10] = assay: Potentiation factor, ratio of IC50 for human MDA-MB-231 cells to IC50 for human MDA-MB-231 cells in presence of SN-38; assay type: functional
MDA-MB-231 [11] = assay: Potentiation factor, ratio of IC50 for human MDA-MB-231 cells to IC50 for human MDA-MB-231 cells in presence of doxorubicin; assay type: functional
K562 = assay: Potentiation factor, ratio of IC50 for human K562 cells to IC50 for human K562 cells in presence of gemcitabine; assay type: functional
COLO 205 [12] = assay: Antitumor activity against human COLO 205 cells xenografted in athymic nude mouse model assessed as tumor growth inhibition at 4 mg/kg, ip administered twice daily in presence of gemcitabine (Gemcitabine alone= 58%); assay type: functional; details: read-out: TGI
COLO 205 [13] = assay: Antitumor activity against human COLO 205 cells xenografted in athymic nude mouse model assessed as potentiated tumor growth inhibition at 15 mg/kg, ip administered once daily in presence of gemcitabine relative to control; assay type: functional; details: read-out: TGI
COLO 205 [14] = assay: Antitumor activity against human COLO 205 cells xenografted in athymic nude mouse model assessed as tumor growth delay by measuring test to control tumor ratio at 4 mg/kg, ip administered once daily in presence of gemcitabine (Gemcitabine alone = 8 %); assay type: functional
COLO 205 [15] = assay: Antitumor activity against human COLO 205 cells xenografted in athymic nude mouse model assessed as tumor growth delay by measuring test to control tumor ratio at 12 mg/kg, ip administered once daily in presence of gemcitabine (Gemcitabine alone= 8%); assay type: functional
COLO 205 [16] = assay: Antitumor activity against human COLO 205 cells xenografted in athymic nude mouse model assessed as tumor growth delay by measuring test to control tumor ratio at 20 mg/kg, ip administered once daily in presence of gemcitabine (Gemcitabine alone= 8%); assay type: functional
COLO 205 [17] = assay: Antitumor activity against human COLO 205 cells xenografted in athymic nude mouse model assessed as tumor growth delay by measuring test to control tumor ratio at 7.5 mg/kg, ip administered once daily in presence of gemcitabine (Gemcitabine alone = 3%); assay type: functional
COLO 205 [18] = assay: Antitumor activity against human COLO 205 cells xenografted in athymic nude mouse model assessed as gross log cell kill at 4 mg/kg, ip administered twice daily in presence of gemcitabine (Gemcitabine alone = 0.5%); assay type: functional
COLO 205 [19] = assay: Antitumor activity against human COLO 205 cells xenografted in athymic nude mouse model assessed as gross log cell kill at 12 mg/kg, ip administered once daily in presence of gemcitabine (Gemcitabine alone = 0.5%); assay type: functional
COLO 205 [20] = assay: Antitumor activity against human COLO 205 cells xenografted in athymic nude mouse model assessed as gross log cell kill at 40 mg/kg, ip administered twice daily in presence of gemcitabine (Gemcitabine alone = 0.5%); assay type: functional
COLO 205 [21] = assay: Antitumor activity against human COLO 205 cells xenografted in athymic nude mouse model assessed as gross log cell kill at 30 mg/kg, ip administered twice daily in presence of gemcitabine (Gemcitabine alone = 0.27%); assay type: functional
COLO 205 [22] = assay: In vivo inhibition of Chk1 in athymic nude mouse xenografted with gemcitabine treated human COLO 205 cells assessed as increase in caspase-3 level by immunohistochemical analysis; assay type: functional, cell-based; details: dose 15-30 mg/kg

Proto-oncogene tyrosine-protein kinase receptor Ret, sequence (P07949 whole entry): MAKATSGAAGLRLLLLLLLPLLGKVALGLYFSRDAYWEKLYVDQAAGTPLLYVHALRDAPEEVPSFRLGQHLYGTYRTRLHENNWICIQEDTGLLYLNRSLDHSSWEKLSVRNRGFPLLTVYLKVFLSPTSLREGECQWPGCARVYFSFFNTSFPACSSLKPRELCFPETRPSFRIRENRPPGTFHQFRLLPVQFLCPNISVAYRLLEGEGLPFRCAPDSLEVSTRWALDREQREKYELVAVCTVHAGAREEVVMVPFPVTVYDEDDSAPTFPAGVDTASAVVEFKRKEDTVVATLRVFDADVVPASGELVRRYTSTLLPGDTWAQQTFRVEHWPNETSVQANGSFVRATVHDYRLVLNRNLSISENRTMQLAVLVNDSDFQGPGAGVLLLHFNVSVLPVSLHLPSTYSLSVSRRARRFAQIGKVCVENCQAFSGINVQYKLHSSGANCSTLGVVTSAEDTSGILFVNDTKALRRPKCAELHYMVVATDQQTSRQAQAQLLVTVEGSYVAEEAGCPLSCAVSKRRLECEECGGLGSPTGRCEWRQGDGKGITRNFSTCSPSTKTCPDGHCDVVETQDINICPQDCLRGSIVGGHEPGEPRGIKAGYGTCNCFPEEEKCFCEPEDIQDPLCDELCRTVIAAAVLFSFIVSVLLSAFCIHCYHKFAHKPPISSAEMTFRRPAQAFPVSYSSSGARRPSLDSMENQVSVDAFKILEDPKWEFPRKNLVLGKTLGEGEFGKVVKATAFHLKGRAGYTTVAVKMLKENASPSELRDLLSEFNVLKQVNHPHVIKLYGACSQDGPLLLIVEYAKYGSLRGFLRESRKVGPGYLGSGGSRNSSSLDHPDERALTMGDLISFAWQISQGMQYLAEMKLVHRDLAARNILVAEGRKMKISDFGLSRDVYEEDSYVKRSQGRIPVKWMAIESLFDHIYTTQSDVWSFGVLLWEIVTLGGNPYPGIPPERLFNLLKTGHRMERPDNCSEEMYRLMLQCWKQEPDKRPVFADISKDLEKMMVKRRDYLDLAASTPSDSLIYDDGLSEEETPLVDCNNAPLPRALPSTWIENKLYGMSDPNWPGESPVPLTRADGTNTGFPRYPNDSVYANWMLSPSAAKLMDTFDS

For `Cn1cc(-c2[nH]c3cc(NC(=O)[C@H](N)C4CCCCC4)cc4c3c2C=NNC4=O)cn1`, the IC50 [1] was 80 nM, the AUC(0-inf) [2] was 2670 ng·h/mL and the Vd [3] was 0.7 L/kg. The EC50 (CA46) was 45 nM, the inhibition (HT-29 [4]) was “Active” and the inhibition (HT-29 [5]) was “Active”. The viability at 0.36 µM (HT-29 [6]) was 71%, the viability at 0.54 µM (HT-29 [7]) was 69% and the viability at 0.54 µM (HT-29 [8]) was 78%. The IC50 (PC-3) was 1600 nM, the PF50 (HT-29 [9]) was 3.7 and the PF50 (MDA-MB-231 [10]) was 2.4. It also gave a PF50 (MDA-MB-231 [11]) of 2.25, a PF50 (K562) of 5.6 and an inhibition in vivo at 4 mg/kg (COLO 205 [12]) of 63%. It also gave an inhibition in vivo at 15 mg/kg (COLO 205 [13]) of 45%, a T/C (COLO 205 [14]) of 8 and a T/C (COLO 205 [15]) of 8.5. It also gave a T/C (COLO 205 [16]) of 12, a T/C (COLO 205 [17]) of 5.75 and an LCK (COLO 205 [18]) of 0.5. The LCK (COLO 205 [19]) was 0.53, the LCK (COLO 205 [20]) was 1.25 and the LCK (COLO 205 [21]) was 0.89. The inhibition (COLO 205 [22]) was “Dose-Dependent Effect”.
